Structures are written as SMILES. Changes are numbered by the printed parent chain.

Experiment [1] concerns the target T1, ALK2 (Mus musculus, UniProt P37172).
T1 construct: The C2C12 cell line was selected for the measurement of ALK2 activity using BMP6 as the agonist; host or cells: C2C12
T1 sequence (P37172 21-509): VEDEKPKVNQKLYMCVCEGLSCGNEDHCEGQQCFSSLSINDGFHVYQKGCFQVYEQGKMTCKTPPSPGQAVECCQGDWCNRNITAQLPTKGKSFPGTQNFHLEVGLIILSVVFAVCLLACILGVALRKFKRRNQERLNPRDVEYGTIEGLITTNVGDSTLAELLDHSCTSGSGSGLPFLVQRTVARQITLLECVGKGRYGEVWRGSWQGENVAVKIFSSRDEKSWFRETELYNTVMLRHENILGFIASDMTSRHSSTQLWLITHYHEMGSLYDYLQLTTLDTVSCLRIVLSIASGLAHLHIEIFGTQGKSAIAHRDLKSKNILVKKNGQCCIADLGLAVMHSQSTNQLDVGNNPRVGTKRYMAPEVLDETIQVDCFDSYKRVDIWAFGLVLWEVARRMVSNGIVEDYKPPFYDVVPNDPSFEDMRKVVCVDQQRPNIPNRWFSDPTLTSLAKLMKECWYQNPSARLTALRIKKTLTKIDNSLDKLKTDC
Nature of the experiment: HTRF pSMAD1 cell-based ALK2 assay (C2C12 cells, BMP6 as agonist). The settings on record: cell-based assay, BMP6; read-out: Cell IC50 BMP6. Summed up: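 Phospho-SMAD1 HTRF readout, detection incubated overnight at room temperature. Before that: starved cells in 0.1% FBS for 4 h, 30 min compound pretreatment, then 30 min agonist, BMP6 on C2C12 or BMP9 on BAOEC.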
On the technique in general: TR-FRET usually uses a lanthanide donor and a delayed reading to cut background.

The target of another experiment is ALK3 (Homo sapiens, UniProt P36894). Nature of the experiment: TR-FRET enzymatic ALK kinase assay, ALK3.
The target in the next experiment is T2, ALK5 (Homo sapiens, UniProt P36897).
T2 sequence (P36897 34-503): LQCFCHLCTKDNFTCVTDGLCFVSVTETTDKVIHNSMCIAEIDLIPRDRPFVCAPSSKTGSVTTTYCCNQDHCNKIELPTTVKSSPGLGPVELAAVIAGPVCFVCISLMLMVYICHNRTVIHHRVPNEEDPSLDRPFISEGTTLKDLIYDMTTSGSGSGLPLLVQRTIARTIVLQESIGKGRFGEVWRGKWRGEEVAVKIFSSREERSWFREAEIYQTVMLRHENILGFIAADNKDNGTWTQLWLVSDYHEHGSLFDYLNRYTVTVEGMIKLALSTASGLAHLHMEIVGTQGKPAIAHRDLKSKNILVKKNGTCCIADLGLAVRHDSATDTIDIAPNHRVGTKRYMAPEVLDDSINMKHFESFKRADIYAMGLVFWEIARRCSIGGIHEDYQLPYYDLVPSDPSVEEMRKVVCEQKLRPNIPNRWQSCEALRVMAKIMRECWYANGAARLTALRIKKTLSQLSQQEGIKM
Nature of the experiment: TR-FRET enzymatic ALK kinase assay, ALK5.

For the next experiment, the target named is T3, ALK4 (Homo sapiens, UniProt P36896).
T3 sequence (P36896 24-505): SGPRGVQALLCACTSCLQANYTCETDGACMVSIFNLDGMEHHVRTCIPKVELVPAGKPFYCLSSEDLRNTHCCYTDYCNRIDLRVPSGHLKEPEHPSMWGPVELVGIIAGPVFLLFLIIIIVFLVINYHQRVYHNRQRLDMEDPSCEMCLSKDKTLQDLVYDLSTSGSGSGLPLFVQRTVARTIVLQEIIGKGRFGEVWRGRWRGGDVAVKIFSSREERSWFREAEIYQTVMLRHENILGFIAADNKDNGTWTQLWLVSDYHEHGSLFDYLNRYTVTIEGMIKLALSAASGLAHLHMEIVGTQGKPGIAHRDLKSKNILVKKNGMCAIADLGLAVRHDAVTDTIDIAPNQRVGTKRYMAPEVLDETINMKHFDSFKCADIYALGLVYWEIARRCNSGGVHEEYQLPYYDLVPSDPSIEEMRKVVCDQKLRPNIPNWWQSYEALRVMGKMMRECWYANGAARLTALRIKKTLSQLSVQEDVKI
Description: TR-FRET enzymatic ALK kinase assay, ALK4.

The target in the next experiment is ALK1 (Homo sapiens, UniProt P37023). Description: TR-FRET enzymatic ALK kinase assay, ALK1.
In another experiment the target is ALK6 (Homo sapiens, UniProt O00238). Description: TR-FRET enzymatic ALK kinase assay, ALK6.
Experiment [2] deals with T4, ALK2 (Homo sapiens, UniProt Q04771).
T4 sequence (Q04771 21-509): T1 sequence (P37172 21-509) with V1M, Q10P, I121L, E162D, S310P
Description: TR-FRET enzymatic ALK kinase assay, ALK2.
Description: (§1) Briefly, the ALKs enzymatic assay was initiated by dispense 2.5 μl enzyme in 1× kinase reaction buffer. The assay plate was then added with compounds followed by incubation at room temperature for 10 minutes. Then 2.5 μl/well substrate was added.

Experiment [3] can be described thus: Cell-based assay, TGFb1 (Cell IC50).

Sequence of ALK3 (P36894 24-532): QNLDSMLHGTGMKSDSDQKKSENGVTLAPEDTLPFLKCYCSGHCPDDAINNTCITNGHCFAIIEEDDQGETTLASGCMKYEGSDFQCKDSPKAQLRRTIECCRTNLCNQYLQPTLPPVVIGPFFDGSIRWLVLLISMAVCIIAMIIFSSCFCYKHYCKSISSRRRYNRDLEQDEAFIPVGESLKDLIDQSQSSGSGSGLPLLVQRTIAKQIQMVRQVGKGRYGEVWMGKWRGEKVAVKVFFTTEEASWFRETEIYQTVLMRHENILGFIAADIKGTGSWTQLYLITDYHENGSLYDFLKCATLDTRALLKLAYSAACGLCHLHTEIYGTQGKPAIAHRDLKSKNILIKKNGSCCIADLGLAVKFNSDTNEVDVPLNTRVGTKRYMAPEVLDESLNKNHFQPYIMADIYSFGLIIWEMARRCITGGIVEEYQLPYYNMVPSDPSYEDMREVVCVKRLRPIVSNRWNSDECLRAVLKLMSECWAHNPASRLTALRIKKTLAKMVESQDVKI
Sequence of ALK6 (O00238 14-502): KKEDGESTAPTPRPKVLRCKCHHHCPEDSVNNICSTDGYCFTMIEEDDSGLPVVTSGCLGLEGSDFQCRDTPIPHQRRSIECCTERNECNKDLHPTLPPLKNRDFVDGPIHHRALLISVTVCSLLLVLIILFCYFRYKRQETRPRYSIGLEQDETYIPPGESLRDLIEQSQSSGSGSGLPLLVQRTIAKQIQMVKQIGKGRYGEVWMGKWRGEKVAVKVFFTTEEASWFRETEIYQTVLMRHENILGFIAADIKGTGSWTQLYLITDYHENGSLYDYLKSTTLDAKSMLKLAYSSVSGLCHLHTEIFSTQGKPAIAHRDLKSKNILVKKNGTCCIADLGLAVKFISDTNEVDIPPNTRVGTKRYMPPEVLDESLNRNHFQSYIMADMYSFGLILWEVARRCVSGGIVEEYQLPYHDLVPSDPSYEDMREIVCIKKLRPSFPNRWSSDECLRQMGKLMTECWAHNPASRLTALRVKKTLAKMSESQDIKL
Sequence of ALK1 (P37023 22-503): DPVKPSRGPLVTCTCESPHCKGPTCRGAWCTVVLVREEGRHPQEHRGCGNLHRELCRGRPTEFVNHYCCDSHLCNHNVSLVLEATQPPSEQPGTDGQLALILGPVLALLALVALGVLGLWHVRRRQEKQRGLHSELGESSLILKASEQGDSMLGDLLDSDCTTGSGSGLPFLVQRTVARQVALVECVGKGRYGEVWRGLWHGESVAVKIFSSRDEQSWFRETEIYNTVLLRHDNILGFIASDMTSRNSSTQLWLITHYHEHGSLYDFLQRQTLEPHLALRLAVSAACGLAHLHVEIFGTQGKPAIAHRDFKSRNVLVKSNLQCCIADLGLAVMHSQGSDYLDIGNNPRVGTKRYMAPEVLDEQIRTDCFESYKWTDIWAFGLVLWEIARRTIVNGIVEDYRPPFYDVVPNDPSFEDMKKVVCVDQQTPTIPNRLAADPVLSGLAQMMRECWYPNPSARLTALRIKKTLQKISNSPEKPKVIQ
Description for ALK1: as §1
Description for ALK3: as §1
Description for ALK4: as §1
Description for ALK5: Six ALK kinase enzyme assays were developed for determination of compound activities on ALK1, ALK2, ALK3, ALK4, ALK5 and ALK6.
as §1
Description for ALK6: as §1

For orientation: IC50 means the concentration needed to halve the response being measured. As to `NS(=O)(=O)c1cccc(-c2cnn3cc(-c4ccc(CCN5CCCCC5)cc4)cnc23)c1` [Compound 75, 3-(6-(4-(2-(piperidin-1-yl)ethyl)phenyl)pyrazolo[1,5-a]pyrimidin-3-yl)benzenesulfonamide], the IC50 at ALK2 [1] is 0.467 µM; against ALK3, 6.3 µM; against ALK5, over 10 µM; against ALK4, over 10 µM; against ALK1, 0.57 µM; against ALK6 it was over 10 µM. The IC50 at ALK2 [2] came to 0.12 µM; in experiment [3], 13.5 µM.

On to `c1ccc(-c2cnn3cc(-c4ccc(CCN5CCCCC5)cc4)cnc23)cc1` [Compound 88, 3-phenyl-6-(4-(2-(piperidin-1-yl)ethyl)phenyl)pyrazolo[1,5-a]pyrimidine], for which the half-maximal inhibitory concentration (IC50) on ALK2 [1] was 5.92 µM; against ALK3, over 10 µM; on ALK5, over 10 µM; at ALK4, over 10 µM; on ALK1, 1.3 µM; at ALK6, over 10 µM. Moreover, the IC50 against ALK2 [2] worked out at 0.42 µM; in experiment [3], 0.058 µM.

With `C[C@@H]1CNC[C@H](C)N1c1ccc(-c2cnc3c(-c4ccc(C#N)c5ccccc45)cnn3c2)cc1` [Compound 19, 4-(6-(4-((2R,6S)-2,6-dimethylpiperazin-1-yl)phenyl)pyrazolo[1,5-a]pyrimidin-3-yl)-1-naphthonitrile], the IC50 stood at 0.044 µM at ALK2 [1]; 1.1 µM at ALK3; 151 µM against ALK5; 4.78 µM at ALK4; 0.574 µM on ALK1; 9.84 µM on ALK6. Also, the 50% inhibitory concentration (IC50) against ALK2 [2] worked out at 0.094 µM; in experiment [3], 4.44 µM.

For `CC(O)c1cccc(-c2cnn3cc(-c4ccc(C5CCNCC5)cc4)cnc23)c1` (stereo not shown) [Compound 98, 1-(3-(6-(4-(piperidin-4-yl)phenyl)pyrazolo[1,5-a]pyrimidin-3-yl)phenyl)ethanol], the IC50 on ALK2 [1] is 0.668 µM; on ALK3 it was 3.3 µM; against ALK5, over 10 µM; at ALK4 it was over 10 µM; at ALK1, 0.31 µM; on ALK6, over 10 µM. Further, the figures for the IC50 (against ALK2 [2]; in experiment [3]) were 0.072 µM and 7 µM, respectively.

For `CN1CCC(c2ccc(-c3cnc4c(-c5cccc(S(C)(=O)=O)c5)cnn4c3)cc2)CC1` [Compound 91, 6-(4-(1-methylpiperidin-4-yl)phenyl)-3-(3-(methylsulfonyl)phenyl)pyrazolo[1,5-a]pyrimidine], the IC50 on ALK2 [1] is 0.179 µM; against ALK3 it was 3.2 µM; against ALK5 it was over 10 µM; on ALK4, over 10 µM; against ALK1, 0.22 µM; against ALK6, over 10 µM. Also, the IC50 at ALK2 [2] was found to be 0.052 µM; in experiment [3], 59.2 µM.

Regarding `C[C@@H]1CNC[C@H](C)N1c1ccc(-c2cnc3c(-c4cccc(C(F)(F)F)c4)cnn3c2)cc1` [Compound 81, 6-(4-((2R,6S)-2,6-dimethylpiperazin-1-yl)phenyl)-3-(3-(trifluoromethyl)phenyl)pyrazolo[1,5-a]pyrimidine], the IC50 on ALK2 [1] was 27.4 µM; at ALK3, over 10 µM; against ALK5, over 10 µM; on ALK4 it was over 10 µM; at ALK1, 0.88 µM; against ALK6 it was over 10 µM. The IC50 against ALK2 [2] is 0.17 µM; in experiment [3], over 100 µM.

Turning to `C[C@@H]1CNC[C@H](C)N1c1ccc(-c2cnc3c(-c4ccc(-c5nn[nH]n5)c5ccccc45)cnn3c2)cc1` [Compound 26, 3-(4-(1H-tetrazol-5-yl)naphthalen-1-yl)-6-(4-((2R,6S)-2,6-dimethylpiperazin-1-yl)phenyl)pyrazolo[1,5-a]pyrimidine], the IC50 on ALK2 [1] was 2.99 µM; against ALK3 it was 0.391 µM; against ALK5, 6.11 µM; against ALK4, 3.04 µM; at ALK1, 0.048 µM; at ALK6 it was 1.91 µM. Besides, the IC50 at ALK2 [2] is 0.013 µM; in experiment [3] it was 1.85 µM.

For the molecule `C[C@@H]1CNC[C@H](C)N1c1ccc(-c2cnc3c(-c4ccc(F)c(C#N)c4)cnn3c2)cc1` [Compound 84, 5-(6-(4-((2R,6S)-2,6-dimethylpiperazin-1-yl)phenyl)pyrazolo[1,5-a]pyrimidin-3-yl)-2-fluorobenzonitrile], the IC50 on ALK2 [1] is 2.08 µM; on ALK3 it was over 10 µM; against ALK5, over 10 µM; on ALK4, over 10 µM; against ALK1, 0.86 µM; against ALK6 it was over 10 µM. Also, the IC50 came out at 0.12 µM against ALK2 [2] and 10 µM in experiment [3].

As to `CC(=O)c1cccc2c(-c3cnn4cc(-c5ccc(N6[C@H](C)CNC[C@@H]6C)cc5)cnc34)cccc12` [Compound 24, 1-(5-(6-(4-((2R,6S)-2,6-dimethylpiperazin-1-yl)phenyl)pyrazolo[1,5-a]pyrimidin-3-yl)naphthalen-1-yl)ethanone], the IC50 came to 0.333 µM at ALK2 [1]; 0.059 µM at ALK3; 26.9 µM against ALK5; 1.45 µM on ALK4; 0.107 µM at ALK1; 0.3 µM against ALK6. For the same molecule, the values for the IC50 (on ALK2 [2]; in experiment [3]) were 0.03 µM and 0.58 µM, respectively.

For `CC(C)(O)c1cccc(-c2cnn3cc(-c4ccc(CCN5CCCCC5)cc4)cnc23)c1` [Compound 99, 2-(3-(6-(4-(2-(piperidin-1-yl)ethyl)phenyl)pyrazolo[1,5-a]pyrimidin-3-yl)phenyl)propan-2-ol], the IC50 on ALK2 [1] was 0.509 µM; on ALK3, 2.2 µM; against ALK5, over 10 µM; at ALK4 it was over 10 µM; at ALK1, 0.25 µM; at ALK6 it was over 10 µM. The figures for the half-inhibitory concentration (IC50) (against ALK2 [2]; in experiment [3]) were 0.043 µM and 46 µM, respectively.

On to `C[C@@H]1CNC[C@H](C)N1c1ccc(-c2cnc3c(-c4cc(C#N)cc(S(N)(=O)=O)c4)cnn3c2)cc1` [Compound 79, 3-cyano-5-(6-(4-((2R,6S)-2,6-dimethylpiperazin-1-yl)phenyl)pyrazolo[1,5-a]pyrimidin-3-yl)benzenesulfonamide], for which the IC50 on ALK2 [1] is 8.93 µM; at ALK3, over 10 µM; against ALK5, over 10 µM; on ALK4, over 10 µM; at ALK1, 1.2 µM; against ALK6, over 10 µM. Further, the IC50 on ALK2 [2] worked out at 0.19 µM; in experiment [3], 10.1 µM.

Source of the values: US10513521B2, “Compositions and methods for inhibiting BMP” (The Brigham and Women's Hospital, Inc., priority 2014, dated 2019).
